Measurements reported in the supplement of paper PMC10307832.

Compound: Cc1cc(Nc2cc(N3CCN(C)CC3)nc(Sc3ccc(NC(=O)C4CC4)cc3)n2)n[nH]1 [Tozasertib]
Assay: relative viability (nuclei count vs DMSO), 5 days (fraction); higher = more cells survive
In short: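 After an overnight hold at 37 °C, lung cancer cell lines in 1536-well plates were pinned with five library-drug doses (not always all listed), each √10 from the next, on vehicle-anchored plates. The cells stayed 5 days without fresh medium, then a one-step fix, permeabilisation and Hoechst stain preceded 4× imaging and MetaXpress nuclear counts. A plate passed only with control CV under 25% and at least one doubling. Viability is the median, over plates, of treated-well nuclei relative to vehicle-well nuclei.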

NCI-H727
relative viability (0.004 µM): 1.15 | relative viability (0.01265 µM): 0.879 | relative viability (0.04 µM): 1.11 | relative viability (0.1 µM, anchor plate): 0.667 | relative viability (0.1265 µM): 0.78

NCI-H838
relative viability (0.004 µM): 0.994 | relative viability (0.01265 µM): 0.951 | relative viability (0.04 µM): 1.06 | relative viability (0.1 µM, anchor plate): 0.265 | relative viability (0.1265 µM): 0.683

NCI-H1355
relative viability (0.004 µM): 1.03 | relative viability (0.01265 µM): 0.956 | relative viability (0.04 µM): 1.05 | relative viability (0.1 µM, anchor plate): 0.585 | relative viability (0.1265 µM): 0.817

NCI-H1395
relative viability (0.004 µM): 1.03 | relative viability (0.01265 µM): 0.817 | relative viability (0.04 µM): 0.776 | relative viability (0.1 µM, anchor plate): 0.768 | relative viability (0.1265 µM): 0.495

NCI-H1437
relative viability (0.004 µM): 1.01 | relative viability (0.01265 µM): 0.941 | relative viability (0.04 µM): 0.924 | relative viability (0.1 µM, anchor plate): 0.406

NCI-H1563
relative viability (0.004 µM): 1.04 | relative viability (0.01265 µM): 1.07 | relative viability (0.04 µM): 1.02 | relative viability (0.1265 µM): 0.884

NCI-H1650
relative viability (0.004 µM): 1.03 | relative viability (0.01265 µM): 0.918 | relative viability (0.04 µM): 1.09 | relative viability (0.1 µM, anchor plate): 0.418 | relative viability (0.1265 µM): 0.502

NCI-H1651
relative viability (0.004 µM): 1.02 | relative viability (0.01265 µM): 0.949 | relative viability (0.04 µM): 0.984 | relative viability (0.1 µM, anchor plate): 0.698 | relative viability (0.1265 µM): 0.922

NCI-H1666
relative viability (0.004 µM): 0.901 | relative viability (0.01265 µM): 0.892 | relative viability (0.04 µM): 0.975 | relative viability (0.1 µM, anchor plate): 0.601 | relative viability (0.1265 µM): 0.846

NCI-H1703
relative viability (0.004 µM): 1.04 | relative viability (0.01265 µM): 0.857 | relative viability (0.04 µM): 1.21 | relative viability (0.1265 µM): 0.556

NCI-H1734
relative viability (0.004 µM): 1.01 | relative viability (0.01265 µM): 0.957 | relative viability (0.04 µM): 0.95 | relative viability (0.1 µM, anchor plate): 0.266 | relative viability (0.1265 µM): 0.504

NCI-H1755
relative viability (0.004 µM): 1.03 | relative viability (0.01265 µM): 0.994 | relative viability (0.04 µM): 1.04 | relative viability (0.1 µM, anchor plate): 0.577 | relative viability (0.1265 µM): 0.953

NCI-H1792
relative viability (0.004 µM): 1.16 | relative viability (0.01265 µM): 0.781 | relative viability (0.04 µM): 1.01 | relative viability (0.1265 µM): 0.613

NCI-H1793
relative viability (0.004 µM): 1.03 | relative viability (0.01265 µM): 0.76 | relative viability (0.04 µM): 1.01 | relative viability (0.1 µM, anchor plate): 0.384 | relative viability (0.1265 µM): 0.892

NCI-H1915
relative viability (0.004 µM): 1.04 | relative viability (0.01265 µM): 0.986 | relative viability (0.04 µM): 0.934 | relative viability (0.1 µM, anchor plate): 0.435 | relative viability (0.1265 µM): 0.795

NCI-H1944
relative viability (0.004 µM): 1.01 | relative viability (0.01265 µM): 0.963 | relative viability (0.04 µM): 0.901 | relative viability (0.1 µM, anchor plate): 0.263 | relative viability (0.1265 µM): 0.526

NCI-H1975
relative viability (0.004 µM): 1.04 | relative viability (0.01265 µM): 0.91 | relative viability (0.04 µM): 1.06 | relative viability (0.1 µM, anchor plate): 0.759 | relative viability (0.1265 µM): 0.85

NCI-H1993
relative viability (0.004 µM): 1.03 | relative viability (0.01265 µM): 0.782 | relative viability (0.04 µM): 0.939 | relative viability (0.1 µM, anchor plate): 0.58 | relative viability (0.1265 µM): 0.676

NCI-H2009
relative viability (0.004 µM): 1.03 | relative viability (0.01265 µM): 0.951 | relative viability (0.04 µM): 1 | relative viability (0.1 µM, anchor plate): 0.74 | relative viability (0.1265 µM): 0.885

NCI-H2023
relative viability (0.004 µM): 0.999 | relative viability (0.01265 µM): 0.985 | relative viability (0.04 µM): 1.14 | relative viability (0.1 µM, anchor plate): 0.369 | relative viability (0.1265 µM): 0.605

NCI-H2085
relative viability (0.004 µM): 1.02 | relative viability (0.01265 µM): 0.982 | relative viability (0.04 µM): 0.984 | relative viability (0.1 µM, anchor plate): 0.84 | relative viability (0.1265 µM): 0.915

NCI-H2087
relative viability (0.004 µM): 1.16 | relative viability (0.01265 µM): 1.02 | relative viability (0.04 µM): 1.11 | relative viability (0.1 µM, anchor plate): 0.254 | relative viability (0.1265 µM): 0.581

NCI-H2126
relative viability (0.004 µM): 0.996 | relative viability (0.01265 µM): 1.06 | relative viability (0.04 µM): 1.04 | relative viability (0.1 µM, anchor plate): 0.846 | relative viability (0.1265 µM): 0.925

NCI-H2170
relative viability (0.004 µM): 0.964 | relative viability (0.01265 µM): 1.01 | relative viability (0.04 µM): 0.954 | relative viability (0.1 µM, anchor plate): 0.755 | relative viability (0.1265 µM): 0.893

NCI-H2228
relative viability (0.004 µM): 1.08 | relative viability (0.01265 µM): 1.07 | relative viability (0.04 µM): 1.03 | relative viability (0.1 µM, anchor plate): 0.265 | relative viability (0.1265 µM): 0.607

NCI-H2342
relative viability (0.004 µM): 0.997 | relative viability (0.1 µM, anchor plate): 0.52 | relative viability (0.1265 µM): 0.909

NCI-H2347
relative viability (0.004 µM): 1.03 | relative viability (0.01265 µM): 1 | relative viability (0.04 µM): 1.08 | relative viability (0.1 µM, anchor plate): 0.573 | relative viability (0.1265 µM): 0.941

NCI-H2405
relative viability (0.004 µM): 1.04 | relative viability (0.01265 µM): 1.01 | relative viability (0.04 µM): 0.992 | relative viability (0.1 µM, anchor plate): 0.731 | relative viability (0.1265 µM): 0.885

NCI-H3122
relative viability (0.004 µM): 0.965 | relative viability (0.01265 µM): 0.976 | relative viability (0.1 µM, anchor plate): 0.421 | relative viability (0.1265 µM): 1.01

PC-3 [JPC-3]
relative viability (0.004 µM): 0.918 | relative viability (0.01265 µM): 0.981 | relative viability (0.04 µM): 1.05 | relative viability (0.1 µM, anchor plate): 0.88 | relative viability (0.1265 µM): 0.733

PC-14
relative viability (0.004 µM): 0.81 | relative viability (0.01265 µM): 0.904 | relative viability (0.04 µM): 1.1 | relative viability (0.1 µM, anchor plate): 0.601 | relative viability (0.1265 µM): 0.638

RERF-LC-KJ
relative viability (0.004 µM): 0.942 | relative viability (0.01265 µM): 0.914 | relative viability (0.04 µM): 1.04 | relative viability (0.1 µM, anchor plate): 0.491 | relative viability (0.1265 µM): 0.895

SK-LU-1
relative viability (0.004 µM): 1.09 | relative viability (0.01265 µM): 1.11 | relative viability (0.04 µM): 1.14 | relative viability (0.1 µM, anchor plate): 0.334 | relative viability (0.1265 µM): 0.964

SK-MES-1
relative viability (0.004 µM): 1.03 | relative viability (0.01265 µM): 1 | relative viability (0.04 µM): 1.1 | relative viability (0.1 µM, anchor plate): 0.885 | relative viability (0.1265 µM): 0.955

SW 900
relative viability (0.004 µM): 1.06 | relative viability (0.01265 µM): 0.736 | relative viability (0.04 µM): 0.933 | relative viability (0.1 µM, anchor plate): 0.566 | relative viability (0.1265 µM): 0.62

SW 1573
relative viability (0.004 µM): 1.02 | relative viability (0.01265 µM): 0.904 | relative viability (0.04 µM): 0.945 | relative viability (0.1 µM, anchor plate): 0.191 | relative viability (0.1265 µM): 0.48

UMC-11
relative viability (0.004 µM): 1.03 | relative viability (0.01265 µM): 0.898 | relative viability (0.04 µM): 0.966 | relative viability (0.1 µM, anchor plate): 0.206 | relative viability (0.1265 µM): 0.342
